Results as given in patent US12447198B2, “Peptides and fragments for treating diabetes and associated metabolic diseases” (Betavive Ltd., priority 2021, dated 2025).
Where no end group is shown, it is not given here.

Tests used:
[1] = test system: β-MIN6 cells; experiment: Insulin secretion of β-MIN6 cells following glucose induction; type: cell-based, mouse; conditions: 1 week treatment; IGF-2 5 nM, 20 nM, 80 nM
From the text: β-MIN6 cells serve as an in vitro model of mouse pancreatic islets. β-MIN6 cells were used as an in vitro model to measure the effects of treatment with IGF-2.

[2] = test system: STZ-treated mouse islets; experiment: MTT viability of STZ-treated mouse islets; type: cell-based; conditions: increasing concentrations
From the text: Yellow dye MTT is converted to a purple dye by mitochondrial reductase in viable cells. Therefore, the amount of purple dye present determined by measuring optical density of cells at 570 nm serves as a measurement of cell viability.

[3] = test system: STZ-treated mouse islets; experiment: Insulin secretion from STZ-treated mouse islets; type: cell-based; conditions: islets treated with 2.5 mM STZ; 48 hours after treatment; IGF-2 50 nM and 500 nM, GLP-1 100 nM and 1000 nM
Procedure: Mouse islet cells were treated with 2.5 mM STZ and subsequently treated with either IGF-2 (FA) at 50 nM and 500 nM, or with GLP-1 at 100 nM and 1000 nM.

[4] = test system: mice; experiment: Blood glucose concentration kinetics of IGF-2 vs. insulin in a glucose tolerance test; type: in vivo, mouse; conditions: insulin 1 unit per kg, IGF-2 800 μg/kg
From the text: IGF-2 therefore provides an effect that mimics insulin within the body, and that effect is referred to herein as an “insulinomimetic” effect. […] In this example, administering IGF-2 can provide better results than administering insulin with respect to blood glucose levels, even when only a single dose was used. Without being bound by this theory, it is possible that the IGF-2 combines with a number of binding proteins in the blood and its active free form is then released slowly from the complex.

Row | Substance | insulin secretion following glucose induction [1] | mouse islet viability (MTT, optical density at 570 nm) [2] | insulin secretion [3] | glucose level after administration ([4]; glucose tolerance test in mice) | time after which the recovery in glucose levels began ([4]; single dose)
1 | GLP-1 (HAEGTFTSDVSSYLEGQAAKEFIAWLVKGR; ends and bridges not checked; UniProt P01275 98-127, looked up) [a satiety hormone, comparator in vitro, reference compound] | does not increase insulin secretion | did not significantly increase mouse islet viability | did not significantly increase insulin secretion |  | 
2 | insulin [reference compound] |  |  |  | the glucose level decreased | after two hours
